Experimental data published in paper PMC11310081, “Deep-learning-enabled antibiotic discovery through molecular de-extinction” (Nature Biomedical Engineering, 2024).
Values after ≈ are worked out from the molar mass of the structure shown. Peptide text beside a SMILES is read from it.

How the values were obtained:
[1] = system: HEK293T cells; settings: 24 h
Outline: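 5,000 cells/well seeded a day ahead in DMEM with 10% FBS, then treated with peptides; viability by MTT (0.5 mg/ml, 4 h, 37 °C), formazan in acidic isopropanol read at 570 nm. Concentration causing 50% lysis from non-linear regression; three biological replicates, two technical each.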

[2] = system: E. faecium ATCC 700221 (vancomycin-resistant strain); format: cell-based, Enterococcus faecium; settings: ATCC 700221, 20 h
Outline: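 Log-phase cells (OD600 0.3–0.5), 37 °C; peptides 1–64 μmol l^−1 in broth microdilution; OD600 read-out; n = 3 biological replicates.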

[3] = system: K. pneumoniae ATCC 13883; format: cell-based, Klebsiella pneumoniae; settings: ATCC 13883, 20 h
Source text: (§1) The following Gram-negative bacteria were used in our study: A. baumannii ATCC 19606, E. coli ATCC 11775, E. coli AIC221 (E. coli MG1655 phnE_2::FRT), E. coli AIC222 (E. coli MG1655 pmrA53 phnE_2::FRT (colistin resistant)), K. pneumoniae ATCC 13883, P. aeruginosa PAO1 and P. aeruginosa PA14. The following Gram-positive bacteria were also used in our study: S. aureus ATCC 12600, S. aureus ATCC BAA-1556 (methicillin-resistant strain), E. faecalis ATCC 700802 (vancomycin-resistant strain) and E. faecium ATCC 700221 (vancomycin-resistant strain). Bacteria were grown from frozen stocks and plated on Luria–Bertani (LB) or Pseudomonas isolation agar plates (P. aeruginosa strains) and incubated overnight at 37 °C. After the incubation period, a single colony was transferred to 5 ml of LB medium, and cultures were incubated overnight (16 h) at 37 °C. The following day, an inoculum was prepared by diluting the overnight cultures 1:100 in 5 ml of the respective media and incubating them at 37 °C until bacteria reached logarithmic phase (OD600 = 0.3–0.5).
(§2) The in vitro antimicrobial activity of the peptides was assessed by using the broth microdilution assay. […] Aqueous solutions of the peptides were added to the plate at concentrations ranging from 1 to 64 μmol l^−1. […] The optical density of the plates was measured at 600 nm using a spectrophotometer. All assays were done as three biological replicates.

[4] = system: E. faecalis ATCC 700802 (vancomycin-resistant strain); format: cell-based, Enterococcus faecalis; settings: ATCC 700802, 20 h
Source text: as §1
The in vitro antimicrobial activity of the peptides was assessed by using the broth microdilution assay. […] Aqueous solutions of the peptides were added to the plate at concentrations ranging from 1 to 64 μmol l^−1. […] The optical density of the plates was measured at 600 nm using a spectrophotometer. […]

[5] = system: S. aureus ATCC BAA-1556 (methicillin-resistant strain); format: cell-based, Staphylococcus aureus; settings: ATCC BAA-1556, 20 h
Source text: as §1, §2

[6] = system: S. aureus ATCC 12600; format: cell-based, Staphylococcus aureus; settings: ATCC 12600, 20 h
Source text: as §1, §2

[7] = system: E. coli ATCC 11775; format: cell-based, Escherichia coli; settings: ATCC 11775, 20 h
Source text: as §1, §2

[8] = system: E. coli AIC221; format: cell-based, Escherichia coli; settings: AIC221, 20 h
Source text: as §1, §2

Row | Structure (SMILES) | CC50 [1] | TI (therapeutic index) [1] | Minimal inhibitory concentration, E. faecium ATCC700221-VRE [2] | Minimal inhibitory concentration, K. pneumoniae ATCC133883 [3] | Minimal inhibitory concentration, E. faecalis ATCC700802-VRE [4] | Minimal inhibitory concentration, S. aureus ATCC BAA-1556-MRSA [5] | Minimal inhibitory concentration, S. aureus ATCC12600 [6] | Minimal inhibitory concentration, E. coli ATCC11775 [7] | Minimal inhibitory concentration, E. coli AIC221 [8]
1 | CC[C@H](C)[C@H](NC(=O)[C@@H](N)CC(C)C)C(=O)N[C@H](C(=O)N[C@@H](CS)C(=O)N[C@@H](Cc1ccccc1)C(=O)N[C@@H](Cc1ccccc1)C(=O)N[C@@H](CCCNC(=N)N)C(=O)N[C@@H](CCC(N)=O)C(=O)N[C@@H](CC(C)C)C(=O)N[C@@H](CCCCN)C(=O)N[C@@H](Cc1ccccc1)C(=O)N[C@@H](Cc1c[nH]cn1)C(=O)N[C@@H](Cc1ccccc1)C(=O)O)C(C)C [Megalocerin-1] (H-LIVCFFRQLKFHF-OH; N-terminus and C-terminus assumed) | > 128 µM | > 16 | 8 µM (≈ 13.6 µg/mL) | 64 µM (≈ 109 µg/mL) | – | – | – | – | –
2 | CC[C@H](C)[C@H](N)C(=O)N[C@@H](Cc1ccccc1)C(=O)N[C@@H](CC(C)C)C(=O)N[C@@H](Cc1c[nH]cn1)C(=O)N[C@@H](CC(C)C)C(=O)N[C@@H](CCCCN)C(=O)N[C@H](C(=O)N[C@@H](CC(C)C)C(=O)N[C@@H](CCCCN)C(=O)N[C@H](C(=O)N[C@H](C(=O)N[C@@H](CCCNC(=N)N)C(=O)N[C@@H](CC(C)C)C(=O)N[C@@H](CC(C)C)C(=O)O)[C@@H](C)CC)[C@@H](C)CC)[C@@H](C)CC [Elephasin-2] (H-IFLHLKILKIIRLL-OH; N-terminus and C-terminus assumed) | > 128 µM | – | 1 µM (≈ 1.73 µg/mL) | – | 8 µM (≈ 13.9 µg/mL) | 1 µM (≈ 1.73 µg/mL) | 1 µM (≈ 1.73 µg/mL) | 16 µM (≈ 27.7 µg/mL) | 2 µM (≈ 3.47 µg/mL)
3 | CC(C)C[C@H](NC(=O)CNC(=O)[C@H](CCCNC(=N)N)NC(=O)[C@H](CCCCN)NC(=O)[C@H](CCCNC(=N)N)NC(=O)[C@@H](N)CCCCN)C(=O)N[C@@H](CCCCN)C(=O)N[C@@H](CC(C)C)C(=O)N[C@@H](C)C(=O)N[C@H](C(=O)N[C@@H](C)C(=O)N[C@@H](CC(C)C)C(=O)N[C@@H](CO)C(=O)N[C@@H](CC(C)C)C(=O)N[C@@H](CC(N)=O)C(=O)N[C@@H](CC(N)=O)C(=O)N[C@@H](CCCCN)C(=O)N[C@@H](Cc1ccccc1)C(=O)O)[C@@H](C)O [Mylodonin-2] (H-KRKRGLKLATALSLNNKF-OH; N-terminus and C-terminus assumed) | > 128 µM | – | – | – | – | – | – | – | –
4 | CC[C@H](C)[C@H](NC(=O)[C@H](CO)NC(=O)[C@H](CCCNC(=N)N)NC(=O)[C@H](C)NC(=O)[C@H](Cc1c[nH]cn1)NC(=O)[C@H](CC(C)C)NC(=O)[C@H](CS)NC(=O)[C@H](C)NC(=O)[C@@H](N)CCCNC(=N)N)C(=O)N[C@@H](C)C(=O)N[C@@H](CCCNC(=N)N)C(=O)N[C@@H](CC(C)C)C(=O)N[C@@H](Cc1c[nH]cn1)C(=O)N[C@@H](CCCCN)C(=O)N[C@@H](CCCNC(=N)N)C(=O)N[C@@H](Cc1c[nH]c2ccccc12)C(=O)N[C@@H](CCCNC(=N)N)C(=O)N1CCC[C@H]1C(=O)N[C@H](C(=O)N[C@@H](Cc1c[nH]cn1)C(=O)N[C@@H](CCC(N)=O)C(=O)NCC(=O)N[C@@H](CC(C)C)C(=O)NCC(=O)N[C@@H](CC(C)C)C(=O)N[C@@H](CCCCN)C(=O)O)C(C)C [Mammuthusin-2] (H-RACLHARSIARLHKRWRPVHQGLGLK-OH; N-terminus and C-terminus assumed) | > 128 µM | > 4 | – | – | – | – | – | – | –
